Values of other authors in patent US6528705B1, “Method for improving productivity of higher plants” (Nara Institute of Science and Technology, priority 1999, dated 2003).
Read-outs that look alike come from different tables or passages of the source.

Experiments:
[1] = molecular target: Synechococcus PCC 7942 FBPase-I (fructose-1,6-bisphosphatase/sedoheptulose-1,7-bisphosphatase, FBPase/SBPase), wild type, sequence number 1
[2] = system: Synechococcus PCC 7942 FBPase-I (fructose-1,6-bisphosphatase/sedoheptulose-1,7-bisphosphatase, FBPase/SBPase), wild type, sequence number 1; details: purified enzyme
[3] = system: Synechococcus PCC 7942 FBPase-I (fructose-1,6-bisphosphatase/sedoheptulose-1,7-bisphosphatase, FBPase/SBPase), wild type, sequence number 1; details: after the treatment by 1 mM H2O2; purified enzyme

Structure (SMILES): Nc1ncnc2c1ncn2[C@@H]1O[C@H](COP(=O)(O)O)[C@@H](O)[C@H]1O [AMP]
- Ki ([1]; inhibition of the enzyme activity by AMP): 260 µM

Structure (SMILES): O=P(O)(O)OC[C@H]1OC(O)(COP(=O)(O)O)[C@@H](O)[C@@H]1O (some centres unmarked) [Fru1,6-P2, fructose-1,6-bisphosphate]
- Km ([2]; substrate Fru1,6-P2, read-out: Km for Fru1,6-P2): 52 µM

Structure (SMILES): OO [H2O2]
- native enzyme activity retained [3]: more than 80%

Structure (SMILES): O=P(O)(O)OC[C@@H](O)[C@H]1OC(O)(COP(=O)(O)O)[C@@H](O)[C@@H]1O (some centres unmarked) [Sed1,7-P2, sedoheptulose-1,7-bisphosphate]
- Km ([2]; substrate Sed1,7-P2, read-out: Km for Sed1,7-P2): 118 µM

Structure (SMILES): O=P(O)(O)OC[C@H]1O[C@@](CO)(OP(=O)(O)O)[C@@H](O)[C@@H]1O [fructose-2,6-P2]
- inhibition of enzyme activity ([1]; fructose-2,6-P2, concentration not given): not inhibited
